Drawing on ChEMBL document CHEMBL1136625, “Substituted quinolines induce inhibition of proliferation of HTLV-1 infected cells” (2003), this text covers inhibition for 29 molecules.

For the first test, the system named is Human T-cell leukemia virus type I. As to the kind of experiment: Inhibitory activity against human T-lymphotropic virus type 1 (HTLV-1) infected HUT-102 cells at 10 uM. It counts as functional. As to conditions: Primate T-lymphotropic virus 1, HuT-102.
With `COc1ccc(/C=C/c2ccc3ccccc3n2)cc1OC`, the inhibition at 10 µM came out at 0%. The same measure, in the same setting: with `COc1ccc(C(O)Cc2ccc3ccccc3n2)cc1OC` (centres undefined) the figure was 0%; with `C(=C\c1ccc2ccccc2n1)/c1ccccc1`, 0%; with `COC(=O)/C=C/c1ccc2ccccc2n1`, 4%. Still for that read-out and setting: the figure for `OC/C=C/c1ccc2ccccc2n1` is 0%; for `COC(=O)/C=C/c1ccc2cc(C)ccc2n1` it is 45%. With `BrC(Br)=Cc1ccc2ccccc2n1`, the inhibition at 10 µM was 0%. `OC(c1ccc2ccccc2n1)C1CC1` (centres undefined) showed an inhibition at 10 µM of 0%. Molecule `CCCCCc1ccc2ccccc2n1` registered an inhibition at 10 µM of 0%.

Molecule `CC1OC1c1ccc2ccccc2n1` (centres undefined) showed an inhibition at 10 µM of 0%. With `CC/C=C/c1ccc2ccccc2n1`, the inhibition at 10 µM came to 0%. Same read-out and setting: with `C[Si](C)(C)C#Cc1ccc2ccccc2n1` the figure was 87%. On the same count and under the same terms, with `CCCCCCCCCCCC/C=C/c1ccc2ccccc2n1` the figure was 6%; with `C=Cc1ccc2ccccc2n1`, 87%; with `c1ccc(C2OC2c2ccc3ccccc3n2)cc1` (centres undefined), 0%. Still for that read-out and setting: with `[O-][n+]1c(/C=C/c2ccccc2)ccc2ccccc21` the figure was 86%; with `c1ccc2nc(CCc3ccc4c(c3)OCO4)ccc2c1`, 50%. Molecule `OC(Cc1ccc2ccccc2n1)c1ccccc1` (centres undefined) displayed an inhibition at 10 µM of 16%. `CCCCCCCCCCCCCCc1ccc2ccccc2n1` gave an inhibition at 10 µM of 12%. With `CC(C)c1ccc2ccccc2n1`, 10 µM produced 0% inhibition. The same measure, in the same setting: the figure for `CC(O)Cc1ccc2cccc(O)c2n1` (centres undefined) is 85%. Turning to `CCCc1ccc2ccccc2n1`, 10 µM produced 0% inhibition. `C(#Cc1cnc2ccccc2c1)CCC#Cc1cnc2ccccc2c1` gave an inhibition at 10 µM of 82%. Same read-out and setting: the figure for `CCC/C=C/c1ccc2ccccc2n1` is 46%; for `O=C/C=C/c1ccc2ccccc2n1` it is 34%; for `c1ccc(-c2ccc3ccccc3n2)cc1` [2-PHENYLQUINOLINE] it is 0%.

The species named for a further test is Homo sapiens. As to the kind of experiment: Inhibitory activity against human T-lymphotropic virus type 1 (HTLV-1) infected HUT-102 cells at 50 uM. In kind it is functional.
Conditions: not given
Consider `O=[N+]([O-])/C=C/c1ccc2ccccc2n1`, for which the inhibition at 50 µM was 0%. Consider `C(=C\c1ccc2ccccc2n1)/c1ccc2ccccc2n1`, for which testing at 50 µM gave an inhibition of 0%. Still for that read-out and setting: the figure for `CC(=O)Cc1ccc2ccccc2n1` is 0%.

The term inhibition denotes the relative decrease from the control value, in per cent. Low readings indicate a weak effect, high ones a strong effect.
